Experimental data reported in patent publication EP0061056A1, “5,6-Dimethylpyrrolo (2,3-b) pyridines, process for their preparation and their use as medicaments” (Troponwerke GmbH & Co. KG, priority 1981, dated 1982).
Where two headings read alike, the source gives them in different places.

Tested on: Kaolinödem der Rattenpfote
Test: Kaolin-induced rat paw oedema (inhibition of inflammation)
Type: in vivo, Ratte
Details: kaolin oedema of the rat paw
Protocol: Die tierexperimentelle Prüfung der erfindungsgemäßen Verbindungen ergab, daß ein Teil dieser Substanzen sedative und antikonvulsive Eigenschaften besitzt. Darüber hinaus führen sie auch zu einer Hemmung der Entzündung, gemessen an der Beeinflussen des Pfotenödems der Ratte nach Kaolininjektion.
Bei oraler Applikation zeigen die erfindungsgemäßen Verbindungen eine signifikante entzündungshemmende Wirkung am Kaolinödem der Rattenpfote nach Gaben von 25 mg/kg. Bei intramuskulärer Applikation zeigen die Verbindungen bereits bei Dosierung von 10 mg/kg eine deutliche Hemmung der Entzündung. Für die Verbindung des Beispiels 1 beträgt die DE 50 bei oraler Applikation 68 mg/kg und die DE50 bei intramuskulärer Applikation 0,9 mg/kg.

`Cc1c(C)n(-c2ccccc2)c2nccc(N)c12` [Beispiel 1, 4-Amino-5,6-dimethyl-7-phenyl-pyrrolo[2,3-b]-7-pyridin] showed an ED50 (im, intramuscular application, read-out: DE50 (the source's name)) of 0.9 mg/kg and an ED50 (oral application, read-out: DE 50 (the source's name)) of 68 mg/kg.
